Our source for the IC50 and IC90 values is PubChem BioAssay AID449764 (Southern Research Specialized Biocontainment Screening …, 2010).

The assay concerns Mycobacterium tuberculosis H37Rv growth inhibition, no glycerol. The experiment in a line: Confirmatory growth inhibition assay, Mycobacterium tuberculosis H37Rv, absence of glycerol (AID 449764).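 As to all read-outs here: growth read after 7 days of incubation.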 The settings on record: for IC90: measured here: IC90 growth inhibition.

Bounds are passed on as bounds.

One may read the IC50 as the midpoint of a concentration-inhibition curve. One may read the IC90 as the point of the concentration-response curve where the effect stands at 90%. A lower IC90 goes with greater potency. With `COc1ccc(-c2cn(Cc3ccc(C(=O)NCc4ccc(C)cc4)cc3)c(C(C)N)n2)cc1` (stereo not given), the IC50 was 66 µM and the concentration for an effect of 90% (IC90) turned out to be 82.4 µM. In the case of `CCN(CC)CCN(C(=O)c1ccc(S(=O)(=O)N2CCCC2)cc1)c1nc2cc(C)cc(C)c2s1`, the IC50 was 11.7 µM and the IC90 is 13.5 µM. For the compound `N#C/C(=C\c1ccc(-c2ccc(Br)cc2)o1)C(=O)NCCc1c[nH]c2ccccc12`, the IC50 is 97.5 µM and the IC90 was over 100 µM.

With `CCNc1nc(NCC)nc(N/N=C/c2ccc([N+](=O)[O-])o2)n1`, the IC50 is 1.3 µM and the IC90 stood at 1.7 µM. On the same counts, the results for `CN1CCN(c2cc(-c3ccccc3)nc3cc(-c4ccc(F)cc4)nn23)CC1` are 16.4 µM and 42.2 µM. The like results for `O=C(CCl)NN=C(c1ccccc1)c1ccccc1` were, in that order, 1.32 µM and 2.09 µM. As to `COc1ccc(C(=O)/C=C/Sc2nc3ccccc3o2)cc1`, the IC50 was 90.8 µM and the IC90 is over 100 µM. For the compound `CCOC(=O)c1ccc(NC(=O)C(C)Sc2nc(O)c(-c3ccccc3)c(=O)[nH]2)cc1` (stereo not given), the IC50 is 18.4 µM and the IC90 stood at 35 µM.

For `CCCOc1ccc(-c2cnc(SCC(N)=O)nc2N)cc1`, the IC50 was 42.3 µM and the concentration for an effect of 90% (IC90) is over 100 µM. `CC(C)CNc1nnnc2c1sc1nc(N3CCOCC3)c3c(c12)CC(C)(C)SC3`: the IC90 was over 100 µM. For the compound `CC(=O)c1ccc(-n2cc(-c3ccc(C(C)(C)C)cc3)[n+]3c2SCCC3)cc1`, the IC50 was 20.3 µM and the IC90 stood at 26.9 µM.

As for `Cc1ccc(-n2nnc3c(=O)oc4ccccc4c32)cc1`, the IC50 was 1.88 µM and the 90% effect concentration (IC90) is over 100 µM. The like results for `O=C(Oc1ccccc1-c1nnco1)c1ccc(Cl)cc1` were, in that order, 27.8 µM and 73.6 µM. The like results for `COC(=O)C1C2c3ccccc3OC1(C)N=c1s/c(=C/c3cnn(C)c3C)c(=O)n12` (stereo not given) were, in that order, 6.44 µM and 41.1 µM. Consider `COC(=O)CCc1nc2c(C#N)c(-c3ccc(Cl)cc3)ccn2n1`, for which the IC50 is 2.71 µM and the IC90 was 5.22 µM.

For `CC1=NN(C(=O)c2ccc(Br)cc2)C(O)(c2ccccc2)C1` (stereo not given), the IC50 is 42.3 µM and the IC90 turned out to be 52.6 µM. Regarding `CCOC(=O)c1nnc(-c2ccccc2)nc1Sc1ccccc1Cl`, the IC50 is 90.6 µM and the IC90 was over 100 µM.

With `Cn1nc(-c2ccccc2F)c2cc(C(=O)Nc3ccc4c(c3)OCCO4)sc21`, the IC50 is 41.7 µM and the IC90 was over 100 µM. Turning to `CCN(CC)C(=O)c1cc([N+](=O)[O-])cc2c1-c1ccc([N+](=O)[O-])cc1C2=C(C#N)C#N`, the IC50 is 21.7 µM and the IC90 turned out to be 24.3 µM.

`Cc1ccc2nc(-c3ccncc3)cc(-c3ccccc3)c2c1`: the IC50 is 43.8 µM and the IC90 was 48.6 µM.

Turning to `O=C1NCN(c2ccccc2)C12CCN(CCCC(c1ccc(F)cc1)c1ccc(F)cc1)CC2`, the IC50 is 43.2 µM and the IC90 worked out at 49.2 µM.

As to `Cc1ccc(C2C3=C(CC(C)(C)CC3=O)N=C3c4ccccc4C(=O)C32)cc1` (stereo not given), the IC50 was 63.6 µM and the IC90 turned out to be 87.5 µM. On the same counts, the results for `Cc1ccc(OC/C(O)=C(\C#N)c2nc3ccccc3s2)cc1` are 25.7 µM and 41.1 µM. As to `Oc1ccccc1Nc1nc(NCc2ccccc2)c2ccccc2n1`, the IC50 was 19.1 µM and the IC90 turned out to be 24.1 µM.

In the case of `CN(CC(=O)Nc1ccccc1Br)C(=O)c1cccnc1Nc1cccc(C(F)(F)F)c1`, the IC50 was 35 µM and the IC90 is 48.7 µM. On the same counts, the results for `CC(=O)/C=C(\C)Nc1ccccc1O` are 4.45 µM and 5.87 µM. On to `CC1CCC(C(C)C)C(OC(=O)Cn2c(-c3ccc(F)cc3)[n+](C)c3ccccc32)C1` (stereo not given), for which the IC50 is 10.8 µM and the IC90 was determined as 14.4 µM. As to `O=C(Cc1ccccc1)N/N=C/c1ccc2cccc(O)c2n1`, the IC50 is 11.3 µM and the IC90 was found to be 12.6 µM.
